Source: patent US4822606A, “Immunosuppressive synthetic peptides and analogs thereof based on retroviral envelope sequences” (Duke University, priority 1986, dated 1989)
Ends that are not written are not given here.

Key:
murine CTLL-2 cells = assay: Murine cytotoxic T lymphocyte (CTLL-2) IL-2 dependent proliferation assay; assay type: cell-based; details: for effect upon CTLL-2 cell proliferation: peptides coupled to BSA or control BSA, same conditions as the active peptide; for average inhibition of CTLL-2 proliferation: CS-1 5 experiments, CS-3 4 experiments; for average inhibition of CTLL-2 cell proliferation: 24 experiments; for ^3H-TdR incorporation, CPM ± SD of quadruplicate samples: 24 h;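 as to all read-outs here: CTLL-2 cells, 4 x 10^3 per well in 96-well plates with RPMI plus 6% FBS, proliferation read as cell-bound radioactivity counted by liquid scintillation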
Description: Fifty μ1 of RPMI (6% FBS, 0% IL-2) containing 4 x 10^3 CTLL-2 cells was added to each well of a 96 well tissue culture plate (Falcon, Oxnard, CA). To each well was then added 50 μl of RPMI 1640 containing 3% human IL-2 50 μl of either RPMI or RPMI containing synthetic peptides. Cultures were then incubated for 24 hours at 37° C. in humidified 5% CO^2 Fifty μl of RPMI containing 1 μCi of ^3 H-thymidine (6.7 Ci/mmole; New England Nuclear, Boston, MA) was added to each well for the final 4 hours of cultures. Cells were collected by filtration onto glass fiber filters and incorporated radioactivity determined by liquid scintillation spectrophotometry.

human monocytes = assay: Monocyte superoxide anion (O2^-) release; assay type: cell-based; details: WGA stimulated, peptide coupled to BSA, mean ± SE
[1] = tested on: lymphocytes from two non-related individuals; assay: Human two-way mixed leukocyte culture (MLC); assay type: cell-based; details: coupled to BSA; for average inhibition of human two-way MLC: 4 experiments, 6-day culture; for average inhibition of human two-way MLC (mean±SEM): four experiments, final 24 h of 6 day culture
Description: Fifty μl of RPMI containing 1×10^5 lymphocytes from each of two non-related individuals was added to each well of a 96 well tissue culture plate. An additional 50 μl of RPMI was added and cultures were incubated at 37° C. in humidified 5% CO2 for 5 days. Fifty μl of RPMI containing either peptide or no addition was added for an additional 24 hr. During the final 4 hr of incubation each well was incubated with 25 μl of RPMI containing 0.5 μCi of ^3 H-thymidine and incorporated radionucleotide determined as above.

[2] = tested on: OKT3-stimulated human lymphocytes; assay: Human lymphocyte proliferative response to OKT3 antibody; assay type: cell-based; details: 5 experiments, 3 days, coupled to BSA
Description: (§1) One hundred μl of RPMI containing 2×10^5 lymphocytes was added to each well of a 96 well tissue culture plate. Fifty μl of RPMI containing either peptide or no addition was added for 2 hr at 37° C followed by the addition of 50 μl of RPMI containing nothing or Con A (40 μg/ml) or OKT3 antibody (1:1000 dilution). The cultures were incubated for 72 hr at 37° C. in 5% humidified CO2, pulsed with ^3 Hthymidine (0.,5 μCi/well, 4h.) and the incorporated radioactivity determined as described above. The concentration of OKT3 antibody used was previously determined to give 75-100% of a maximal response.

human lymphocytes = assay: Binding of [^125 I]-CKS-17-BSA to cultured human lymphocytes; details: >1000 fold excess of unlabeled BSA conjugate
Description: Human mononuclear cells were stimulated for 3 days with PHA, washed free of lectin, cultured for 10 days with 10% of a human IL-2 preparation (electronucleonics) washed and resuspended to 5×10^6 cells/ml in phosphate-buffered-saline, pH 7.2 (PBS) containing 0.1% BSA. […] Binding was terminated and unbounded [^125 I]-CKS-17-BSA removed by rapid (30 sec.) centrifugation of the cells through oil. The cell associated radioactivity was measured using a gamma radiation counter.

[3] = tested on: Balb/c and NIH/Swiss splenic lymphocytes; assay: Murine two-way mixed leukocyte culture (MLC); assay type: cell-based; details: coupled to BSA; for average inhibition of murine MLC response (mean±SEM): 3 day MLC, three experiments
Description: Fifty μl RPMI containing 1×10^5 Balb/c splenic lymphocytes and 50 μl containing 1×10^5 NIH/Swiss splenic lymphocytes were added to each well of a 96 well tissue culture plate. An additional 50 μl of RPMI containing peptide or no additives was added to each well and the cultures incubated for 3 to 5 days at 37° C in humidified 5% CO^2 Cultures were pulsed for 4 hr with 0.5 μCi of ^3 H-thymidine in 50 μl of RPMI before harvesting onto glass fiber filters.

[4] = tested on: human lymphocytes stimulated with Con A; assay: Human lymphocyte proliferative response to Con A; assay type: cell-based; details: coupled to BSA
Description: as §1, with “Fifty μl of RPMI containing either peptide or no addition was added for 2 hr at 37° C followed by the addition of 50 μl of RPMI containing nothing or Con A (40 μg/ml) or OKT3 antibody (1:1000 dilution).” left out

Balb/3T3 fibroblasts = assay: Fibroblast proliferation, Balb/3T3; assay type: cell-based; details: 2 or 3 days, dilutions 1:20, 1:40, 1:80
Description: (§2) CKS-17 was added at concentrations of 1:20, 1:40 and 1:80 to monolayers of Balb/3T3 or NIH/3T3 fibroblasts (ca. 1/3 confluent) in 96 well tissue culture plates. The cells were grown for an addition 2-3 days and pulsed with 1.0 μCi ^3 H-thymidine./well for the final 24 hours. The culture media was removed and the cells washed once before disruption with 0.5 ml of 0.5 N NaOH. The radiolabeled nucleic acids were then harvested onto glass fibe filters as described.

NIH/3T3 fibroblasts = assay: Fibroblast proliferation, NIH/3T3; assay type: cell-based; details: 2 or 3 days, dilutions 1:20, 1:40, 1:80
Description: as §2

[5] = tested on: T4^+ and T8^+ lymphocytes, B cells, NK cells and phagocytes; assay: Preliminary double-labeling studies; assay type: binding
Immunization of rabbits = assay type: in vivo, rabbit
[6] = tested on: human lymphocytes stimulated with Con A; assay: Human lymphocyte proliferative response to Con A; assay type: cell-based; details: addition 24 hr. after Con A; coupled to BSA
[7] = Expt. 1, dilution 1:40, coupled to BSA
[8] = Expt. 1, dilution 1:80, coupled to BSA
[9] = Expt. 2, dilution 1:40, coupled to BSA
[10] = Expt. 2, dilution 1:80, coupled to BSA

QYAAQNRRGLDLL [SP-74]
effect upon CTLL-2 cell proliferation (murine CTLL-2 cells): little or no effect | O2^- Release (human monocytes; dilution 1:20): 10.7 ± 0.4 nmoles/5 minues/1.2 × 10^6 mon | O2^- Release (human monocytes; dilution 1:40): 12.5 ± 0.5 nmoles/5 minues/1.2 × 10^6 mon

PVMHPHGAPPNHRPWGMKNLQAIK [SP-16]
effect upon CTLL-2 cell proliferation (murine CTLL-2 cells): little or no effect | O2^- Release (human monocytes; dilution 1:20): 9.8 ± 0.2 nmoles/5 minues/1.2 × 10^6 mon | O2^- Release (human monocytes; dilution 1:40): 12.4 ± 0.6 nmoles/5 minues/1.2 × 10^6 mon

AQNRRGLDLLFWEQGGL [CS-1]
average inhibition of CTLL-2 proliferation (murine CTLL-2 cells; ca. 3.75 μM, coupled to BSA): 13.4% | average inhibition of CTLL-2 proliferation (murine CTLL-2 cells; ca. 7.5 μM, coupled to BSA): 39.8% | average inhibition of CTLL-2 proliferation (murine CTLL-2 cells; ca. 15 μM, coupled to BSA): 92.8% | average inhibition of human two-way MLC ([1]; 3.75 μM): 51.8% | average inhibition of human two-way MLC ([1]; 7.5 μM): 72.2% | average inhibition of human two-way MLC ([1]; 15 μM): 81.8% | average inhibition of OKT3-stimulated lymphocyte proliferation ([2]; ca. 3.75 μM): 26.8% | average inhibition of OKT3-stimulated lymphocyte proliferation ([2]; ca. 7.5 μM): 42.8% | average inhibition of OKT3-stimulated lymphocyte proliferation ([2]; ca. 15 μM): 57.6% | inhibition of [^125 I]-CKS-17-BSA binding by excess unlabelled material (human lymphocytes): binding could be inhibited

LQNRRGLDLLFLKEGGL [CKS-17]
average inhibition of CTLL-2 cell proliferation (murine CTLL-2 cells; dilution 1:20, coupled to BSA): 49.6% | average inhibition of CTLL-2 cell proliferation (murine CTLL-2 cells; dilution 1:40, coupled to BSA): 22.0% | average inhibition of CTLL-2 cell proliferation (murine CTLL-2 cells; dilution 1:80, coupled to BSA): 9.4% | short term toxic effect, trypan blue dye exclusion (murine CTLL-2 cells; CTLL-2 cells, coupled to BSA): not due to either a short term toxic effect | % inhibition of CTLL-2 proliferation (murine CTLL-2 cells; Expt. 1, dilution 1:20 (ca. 7.3 μM), coupled to BSA): 76% | ^3H-TdR incorporation, CPM ± SD of quadruplicate samples (murine CTLL-2 cells; Expt. 1, dilution 1:20, coupled to BSA): 15,255 ± 277 CPM | % inhibition of CTLL-2 proliferation (murine CTLL-2 cells; [7]): 34% | ^3H-TdR incorporation, CPM ± SD of quadruplicate samples (murine CTLL-2 cells; [7]): 42,827 ± 1386 CPM | % inhibition of CTLL-2 proliferation (murine CTLL-2 cells; [8]): 7% | ^3H-TdR incorporation, CPM ± SD of quadruplicate samples (murine CTLL-2 cells; [8]): 60,005 ± 1425 CPM | % inhibition of CTLL-2 proliferation (murine CTLL-2 cells; Expt. 2, dilution 1:20 (ca. 7.3 μM), coupled to BSA): 64% | ^3H-TdR incorporation, CPM ± SD of quadruplicate samples (murine CTLL-2 cells; Expt. 2, dilution 1:20, coupled to BSA): 10,950 ± 2171 CPM | % inhibition of CTLL-2 proliferation (murine CTLL-2 cells; [9]): 24% | ^3H-TdR incorporation, CPM ± SD of quadruplicate samples (murine CTLL-2 cells; [9]): 23,128 ± 3288 CPM | % inhibition of CTLL-2 proliferation (murine CTLL-2 cells; [10]): 1% | ^3H-TdR incorporation, CPM ± SD of quadruplicate samples (murine CTLL-2 cells; [10]): 29,980 ± 3490 CPM | incubation required for maximal inhibition of CTLL-2 cell proliferation (murine CTLL-2 cells; ca. 15 μM, coupled to BSA): 16 h | reversal of inhibition by increasing the concentration of IL-2 twenty-fold (murine CTLL-2 cells; coupled to BSA): could not be reversed | effect upon the CTLL-2 cells (murine CTLL-2 cells; free (unconjugated) peptide): no effect | average inhibition of murine MLC response (mean±SEM) ([3]; dilution 1:20): 94±2% | average inhibition of murine MLC response (mean±SEM) ([3]; dilution 1:30): 74±4% | average inhibition of murine MLC response (mean±SEM) ([3]; dilution 1:80): 48±9% | effect on five-day murine MLC reactions ([3]; five-day MLC): blocked | average inhibition of human two-way MLC (mean±SEM) ([1]; dilution 1:20): 92±2 | average inhibition of human two-way MLC (mean±SEM) ([1]; dilution 1:40): 64±11 | average inhibition of human two-way MLC (mean±SEM) ([1]; dilution 1:80): 18±3 | % inhibition of Con A stimulated proliferation ([4]; Expt. 1, dilution 1:10): 88% | ^3H-TdR incorporation, CPM ± SD of quadruplicate samples ([4]; Expt. 1, dilution 1:10): 11,170 ± 3572 CPM | % inhibition of Con A stimulated proliferation ([4]; Expt. 1, dilution 1:20): 58% | ^3H-TdR incorporation, CPM ± SD of quadruplicate samples ([4]; Expt. 1, dilution 1:20): 38,132 ± 11,989 CPM | % inhibition of Con A stimulated proliferation ([4]; Expt. 1, dilution 1:40): 58% | ^3H-TdR incorporation, CPM ± SD of quadruplicate samples ([4]; Expt. 1, dilution 1:40): 38,085 ± 10,678 CPM | % inhibition of Con A stimulated proliferation ([4]; Expt. 1, dilution 1:80): 48% | ^3H-TdR incorporation, CPM ± SD of quadruplicate samples ([4]; Expt. 1, dilution 1:80): 46,815 ± 601 CPM | % inhibition of Con A stimulated proliferation ([4]; Expt. 2, dilution 1:10): 66% | ^3H-TdR incorporation, CPM ± SD of quadruplicate samples ([4]; Expt. 2, dilution 1:10): 34,601 ± 3914 CPM | % inhibition of Con A stimulated proliferation ([4]; Expt. 2, dilution 1:20): 38% | ^3H-TdR incorporation, CPM ± SD of quadruplicate samples ([4]; Expt. 2, dilution 1:20): 62,445 ± 3602 CPM | % inhibition of Con A stimulated proliferation ([4]; Expt. 2, dilution 1:40): 17% | ^3H-TdR incorporation, CPM ± SD of quadruplicate samples ([4]; Expt. 2, dilution 1:40): 83,154 ± 4422 CPM | % inhibition of Con A stimulated proliferation ([4]; Expt. 2, dilution 1:80): 5% | ^3H-TdR incorporation, CPM ± SD of quadruplicate samples ([4]; Expt. 2, dilution 1:80): 95,395 ± 45 CPM | incorporation of ^3H-thymidine blocked ([4]; text: 1:20 dilution (ca. 7.5μM)): up to 88% | effect upon ^3H-thymidine incorporation (Balb/3T3 fibroblasts): no effect | effect upon ^3H-thymidine incorporation (NIH/3T3 fibroblasts): no effect | O2^- Release (human monocytes; dilution 1:20): 6.0 ± 0.5 nmoles/5 minues/1.2 × 10^6 mon | O2^- Release (human monocytes; dilution 1:40): 8.3 ± 0.5 nmoles/5 minues/1.2 × 10^6 mon | inhibition of [^125 I]-CKS-17-BSA binding by excess unlabelled material (human lymphocytes): binding could be inhibited | cell types bound [5]: binds to T4^+ and T8^+ lymphocytes, B cells, NK cells and phagocytes | antibodies elicited by immunization of rabbits (Immunization of rabbits): elicited antibodies which react with free peptide and the native viral protein | inhibition when peptide is added 24 hr. after the mitogen [6]: comparable levels of inhibition
